Data: patent publication US5721266A, “Substituted imidazolinyl-imidazolines as antagonists of SH-2 binding and therapeutic uses thereof” (Warner-Lambert Company, priority 1994, dated 1998)
Read-outs that look alike come from different tables or passages of the source.

Columns and labels:
[1] = molecular target: T1, [35S]abl SH-2 / activated EGF receptor (Homo sapiens, UniProt P00519); assay: in vitro inhibition of [35S]abl SH-2 interactions with activated EGF receptor; assay type: binding
T1 construct: containing the SH-2 domain of abl; made in house; host or cells: abl SH-2 fusion: bacteria, labelled in vivo with 35S; EGFR partner: EGF-treated 3T3 cells transfected with human EGFR, immunoprecipitated
T1 sequence (P00519 127-217 limits assumed): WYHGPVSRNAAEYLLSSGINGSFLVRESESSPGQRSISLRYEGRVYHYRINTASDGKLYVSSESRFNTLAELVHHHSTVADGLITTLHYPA
Protocol: The ability of some of the preferred compounds of the present invention to inhibit SH-2 interactions with activated tyrosine kinase receptors was measured using an in vitro biological assay. The test assesses the ability of a test compound to inhibit the interaction of [^35 S]abl SH-2 with activated EGF receptors, or with other receptor tyrosine kinases.
A bacterial glutathione-S-transferase fusion protein, containing the SH-2 domain of abl, is labelled in vivo with ^35 S. Phosphorylated EGFR is purified from EGF-treated 3T3 cells transfected with the human EGFR by precipitation with anti-EGFR antisera. The resulting immune complex is bound to protein A--Sepharose beads. Binding of the ^35 S labelled abl fusion protein (77 nM) to the purified EGFR beads complex (approximately 1 μg of receptor/assay) is allowed to proceed to equilibrium (30 minutes) in a total volume of 0.4 mL, in the presence of the test compounds. Bound ^35 S fusion protein is separated from free by filtration through 0.65 μ DUPP filters, and radioactivity is determined by scintillation counting.
Results of the binding study are expressed in Table 1 as IC50 values, i.e., the concentration of test compound required to inhibit [^35 S]abl SH-2 interactions with the activated EGF receptor.

SWISS 3T3 = assay: inhibition of cell growth, SWISS 3T3; assay type: cell-based; settings: mouse fibroblast
NIH EGF-R = assay: inhibition of cell growth, NIH EGF-R; assay type: cell-based; settings: mouse fibroblast, high expression of EGF receptor
KG-1A = assay: inhibition of growth of tumor cells, KG-1A; assay type: cell-based; settings: human acute myelogenous leukemia, no bcr-abl
MCF-7 = assay: inhibition of growth of tumor cells, MCF-7; assay type: cell-based; settings: Homo sapiens, MCF7, estrogen dependent breast adenocarcinoma, 3000 EGF receptors/cell, some erbB2
NIH 2.2 = assay: inhibition of cell growth, NIH 2.2; assay type: cell-based; settings: mouse fibroblast, no EGF receptor
A431 = assay: inhibition of growth of tumor cells, A431; assay type: cell-based; settings: A-431, human epidermoid carcinoma, overexpresses EGF receptor
MDA-231 = assay: inhibition of growth of tumor cells, MDA-231; assay type: cell-based; settings: Homo sapiens, MDA-MB-231, breast adenocarcinoma, moderate EGFR and erbB2
MDA-468 = assay: inhibition of growth of tumor cells, MDA-468; assay type: cell-based; settings: estrogen independent breast adenocarcinoma, overexpresses EGF receptor
K562 cell line [2] = assay: viability of the K562 cell line (FIGS. 1 and 2); assay type: cell-based, human
Protocol: (§1) In one screen, K562 human erythroleukemic cells were seeded at 6×10^4 cells/mL in RPMI 1640 medium containing 10% fetal bovine serum. These cells score positively for the Philadelphia chromosome, and are known to be transformed by the bcr-abl oncogene. At the time of seeding, test compound, or vehicle (DMSO), were added. Cells were counted 4 days after seeding using a hemocytometer.
(§2) In this example, an experiment was conducted to determine the inhibition of the growth of tumor cells from the K562 cell line upon exposure to Test Compound A specified in Example 3. The screen was conducted as described in Example 3.

[3] = test system: Rat Aortic Smooth Muscle Cells (RASMC); assay: [3H]Thymidine Incorporation Assay, smooth muscle cell proliferation stimulated by serum; assay type: cell-based; settings: 22 hours
Protocol: (§3) SH-2 tyrosine kinase inhibitors may block the signal transduction pathways for platelet derived growth factor ("PDGF") and fibroblast growth factor ("FGF"), which have been implicated in the control of smooth muscle cell proliferation. The ability of some of the preferred compounds of the present invention to inhibit smooth muscle cell (SMC) proliferation stimulated by PDGF or serum was measured using the biological assay discussed below.
(§4) Rat Aortic Smooth Muscle Cells (RASMC) were plated into a 24-well plate (30,000 cells/well) in DMEM with 10% Fetal Bovine Serum (FBS). After 4 days cells reached confluence and were made quiescent by incubation in DMEM/F12 medium (Gibco) containing 0.2% FBS for another 2 days. Incubation with the growth factors, PDGF-BB and bFGF as well as FBS, and test compound was carried out in 0.5 mL/well serum-substituted medium (DMEM/F12+1% CPSR-2 from Sigma) for 22 hours. After 18 hours, 0.25 μCi/well [^3 H]thymidine was added. Four hours later the incubation was stopped by removing the radioactive media, washing the cells twice with 1 mL cold phosphate-buffered saline, and then washing 2 times with cold 5% trichloroacetic acid. The acid-insoluble fraction was lysed in 0.75 mL 0.25N NaOH and the radioactivity determined by liquid scintillation counting.
(§5) Smooth muscle cells were isolated from the thoracic aorta of rats (RASMC) and explanted according to the method of Ross, et al., Cell Biology 50:172-186 (1971). Cells were grown in Dulbecco's modified Eagle's medium (DMEM, Gibco) containing 10% fetal calf serum (FBS, Hyclone, Logan, Utah), 1% glutamine (Gibco), and 1% penicillin/streptomycin (Gibco). Cells were identified as smooth muscle cells by their "hill and valley" growth pattern and by fluorescent staining with a monoclonal antibody specific for SMC α-actin (Sigma). RASMC were used between passages 5 and 20 for all experiments. Test compounds were prepared in dimethylsulfoxide (DMSO) in order to achieve consistency in the vehicle and to ensure compound solubility. Appropriate DMSO controls were simultaneously evaluated with the test compounds.
(§6) The results of the cellular proliferation assay are expressed in Table 2 as IC50 values, i.e., the concentration of test compound required to inhibit [^3 H]thymidine incorporation into smooth muscle cells.

L1210 = assay: inhibition of growth of tumor cells, L1210; assay type: cell-based; settings: mouse lymphocytic leukemia
K562 = assay: inhibition of growth of tumor cells, K562; assay type: cell-based; settings: 96 h, human chronic myelogenous leukemia, expresses p210 bcr-abl, 4 days
Protocol: as §1
The results of this experiment for a representative compound of the present invention appears in Table 3. Test Compound A is N,N'-decamethylenebis[2-amino-1-(2-imidazolin-2-yl)-2-imidazoline, dihydroiodide. The inhibition of growth of tumor cells is expressed as IC50 values; i.e., the concentration of test compound required to inhibit growth of the tumor cells by 50%.

K562 cell line [4] = assay: proliferation of K562 cell line (FIG. 3); assay type: cell-based, human; settings: FIG. 3, wide range of concentrations
Protocol: as §1, §2

MOLT-4 = assay: inhibition of growth of tumor cells, MOLT-4; assay type: cell-based; settings: human acute lymphoblastic leukemia, no bcr-abl
KG-1A cell line = assay: proliferation of KG-1A cell line (FIG. 3); assay type: cell-based, human; settings: FIG. 3, wide range of concentrations
Protocol: [The procedure below names another cell line; the source lists this cell line under the same test.] as §1, §2

HCT-8 = assay: inhibition of growth of tumor cells, HCT-8; assay type: cell-based; settings: human colon carcinoma, 18,000 EGF receptors/cell
[5] = test system: Rat Aortic Smooth Muscle Cells (RASMC); assay: [3H]Thymidine Incorporation Assay, smooth muscle cell proliferation stimulated by PDGF; assay type: cell-based; settings: 22 hours
Protocol: as §3, §4, §5, §6

[6] = [35S]abl SH-2 binding to activated EGF receptor, values in nM, read-out: IC50
[7] = [35S]abl SH-2 binding to activated EGF receptor, values in μM, read-out: IC50

SMILES	IC50 [3]	IC50 [5]	IC50 [1, 7]	further results
C(CCCCCNC1=NCCN1C1=NCCN1)CCCCCNC1=NCCN1C1=NCCN1				IC50 [1, 6]: 600 nM
C(CCCCCNC1=NCCN1C1=NCCN1)CCCCNC1=NCCN1C1=NCCN1 [Compound A]	5 µM	2.8 µM		IC50 [1, 6]: 50 nM; IC50 (SWISS 3T3): > 50 µM; IC50 (NIH EGF-R): > 25 µM; IC50 (KG-1A): 100 µM; IC50 (MCF-7): 7.8 µM; IC50 (NIH 2.2): > 25 µM; IC50 (A431): 4.4 µM; IC50 (MDA-231): 14 µM; IC50 (MDA-468): 0.9 µM; viability of the K562 cell line (K562 cell line [2]; FIG. 1, increased concentrations): steadily decline; viability of the K562 cell line over time (K562 cell line [2]; FIG. 2, 3 μM versus 0.3 μM, compared against a control): substantially greater effect at decreasing the viability; IC50 (L1210): 1 µM; IC50 (K562): 0.6 µM; growth rate of the K562 cell line (K562 cell line [4]): substantially decreased; IC50 (MOLT-4): 2.1 µM; growth rate of the KG-1A cell line (KG-1A cell line): only slightly decreased; IC50 (HCT-8): 6.6 µM
C(CCCCNC1=NCCN1C1=NCCN1)CCCNC1=NCCN1C1=NCCN1	62 µM	40 µM	33000 nM	
C(CCCCNC1=NCCN1C1=NCCN1)CCCCNC1=NCCN1C1=NCCN1				IC50 [1]: 1300 nM
C(CCCNC1=NCCN1C1=NCCN1)CCCNC1=NCCN1C1=NCCN1			38000 nM	
C(CN=C1NCCN1C1=NCCN1)CN1CCN(CCCN=C2NCCN2C2=NCCN2)CC1 [2-(3-{4-[3-(4,5,4',5'-Tetrahydro-3H,1'H-[1,2']biimidazolyl-2-ylideneamino)-propyl]-piperazin-1-yl}-propylimino)-2,3,4,5,4',5'-hexahydro-1'H-[1,2']biimidazolyl]			10000 nM	
C(CCCNC1=NCCN1C1=NCCN1)CCNC1=NCCN1C1=NCCN1				IC50 [1, 6]: 100 nM
C(CCNC1=NCCN1C1=NCCN1)CCNC1=NCCN1C1=NCCN1	> 100 µM	74 µM	259000 nM	
CCCCCCCNC1=NCCN1C1=NCCN1 [drawing 21, 2-(Heptylamino)-1-(2-imidazolin-2-yl)-2-imidazoline, monohydroiodide]	6.4 µM	3 µM		
C(CCCCCCNC1=NCCN1C1=NCCN1)CCCCCNC1=NCCN1C1=NCCN1				IC50 [1]: 1200 nM
CCCCCCCNC1=NCCN1C1=NCCN1 [drawing 7, 2-(Heptylamino)-1-(2-imidazolin-2-yl)-2-imidazoline, monohydroiodide]			10000 to 100000 nM	
CCCCCCCCCCCCCN=C1NCCN1C1=NCCN1 [(4,5,4',5'-Tetrahydro-3H,1'H-[1,2']biimidazolyl-2-ylidene)-tridecyl-amine]			50000 nM	
C1CCCCCC(NC2=NCCN2C2=NCCN2)CCCCC1 [drawing 11, 2-Cyclododecylamino-1-(2-imidazolin-2-yl)-2-imidazoline, monohydroiodide]			> 100000 nM	
CCCCCCCCCCCCCCCCCNC1=NCCN1C1=NCCN1 [2-(Heptadecylamino)-1-(2-imidazolin-2-yl)-2-imidazoline, monohydroiodide]	< 1 µM	< 1 µM	1320 nM	
C1CCCCCC(NC2=NCCN2C2=NCCN2)CCCCC1 [drawing 25, 2-Cyclododecylamino-1-(2-imidazolin-2-yl)-2-imidazoline, monohydroiodide]	1.1 µM	< 1 µM		
C(CCNC1=NCCN1C1=NCCN1)CNC1=NCCN1C1=NCCN1			27000 nM	
